US20260335323A1, “CHIMERIC MOLECULE” (UCL Business Ltd, priority 2023, published 2026)

Each molecule was assayed on p62/SQSTM1 (assay: Western blot, p62/SQSTM1 levels in PANC-1 cells).
Assay type: cell-based, human
Excerpt: FIG. 2. BL-918 is a potent ULK1 agonist and autophagy inducer (A) Representative images of PANC-1 cells stably expressing the mCherry-EGFP-LC3 tandem reporter treated with ULK1 agonists. Nuclei stained with Hoechst 33342, autophagosomes are shown in the EGFP channel and autolysosomes in the mCherry channel. Fold change in the number of autophagosomes (B) and autolysosomes (C) puncta in ULK1 agonist treated cells. (D) Western blot of PANC-1 cells treated with DMSO, bafilomycin and ULK1 agonists±bafilomycin; probed for p-ULK1 (S317), ULK1, p62, b-actin, LC3-I and LC3-II. Quantifications of western blot for changes in the ratio of p-ULK1 (S317):ULK1 (E), p62 (F) and LC31:LC3II (G). All data shown are mean±SEM, n=3, *p<0.05, ** p<0.01, one-way ANOVA with Dunnett's multiple comparisons test.
FIG. 4. ULKTACs retain ULK1 agonist activity and subsequent induction of autophagy (A) Western blot of PANC-1 cells treated with ULKTACs±bafilomycin, probed for p-ULK1 (S317), ULK1, p62, b-Actin, LC31 and LC3II. Quantifications of (A) for the pULK1:ULK1 ratio (B) LC3I:LC3II ratio (C) and changes in p62 (D). (E) Representative images of PANC-1 cells stably expressing the mCherry-EGFP-LC3 tandem reporter treated with ULKTACs w/or w/o bafilomycin. Nuclei stained with Hoechst 33342, autophagosomes are shown in the EGFP channel and autolysosomes in the mCherry channel. […]
Cells were homogenised in protein lysis buffer consisting of 0.1 M Tris pH 8.0, 0.1 M NaCl, 5% glycerol, IGEPAL® CA-630 (#18896. Sigma-Aldrich) and 5 mM EDTA, 0.1 M N-ethyl maleimide (ThermoFisher, #23030) and protease inhibitor (Cell Signalling Technologies, #5871). Protein concentrations were determined using the BCA assay to ensure equal loading. […]
Membranes were then incubated with horseradish peroxidase (HRP)-conjugated secondary antibodies (Rabbit #7074 and Mouse #7076) purchased from Cell Signalling Technologies for 1 hour and the HRP signal was detected using EZ-ECL Enhanced Chemiluminescence Detection Kit for HRP (#20-500-500, Sartorius), and imaged with an Alliance Q9 Advanced (UVITec). […]

Row | Compound | p62/SQSTM1 levels
1 | O=C(Nc1cc(C(F)(F)F)cc(C(F)(F)F)c1)N[C@@H](C(=O)Nc1ccc(F)cc1F)c1ccc(OCc2cn(CCCCCCNC(=O)C(=O)c3c(-c4ccccc4)[nH]c4ccccc34)nn2)cc1 [NZ-66, (R)-2-(3-(3,5-bis(trifluoromethyl)phenyl)ureido)-N-(2,4-difluorophenyl)-2-(4-((1-(6-(2-oxo-2-(2-phenyl-1H-indol-3-yl)acetamido)hexyl)-1H-1,2,3-triazol-4-yl)methoxy)phenyl) acetamide] | mild reductions in p62/SQSTM1
2 | O=C(Nc1cc(C(F)(F)F)cc(C(F)(F)F)c1)N[C@@H](C(=O)Nc1ccc(F)cc1F)c1ccc(OCc2cn(CCOCCOCCNC(=O)C(=O)c3c(-c4ccccc4)[nH]c4ccccc34)nn2)cc1 [NZ-65, (R)-2-(3-(3,5-bis(trifluoromethyl)phenyl)ureido)-N-(2,4-difluorophenyl)-2-(4-((1-(2-(2-(2-(2-oxo-2-(2-phenyl-1H-indol-3-yl)acetamido)ethoxy)ethoxy)ethyl)-1H-1,2,3-triazol-4-yl)methoxy)phenyl) acetamide] | mild reductions in p62/SQSTM1
3 | O=C(Nc1ccc(F)cc1F)[C@H](NC(=S)Nc1cc(C(F)(F)F)cc(C(F)(F)F)c1)c1ccccc1 [BL-918, reference compound] | reduction in p62/SQSTM1 levels
